Experimental data reported in patent publication US20230136297A1, “Methods Of Treating Fabry Disease In Patients Having A Mutation In The GLA Gene” (Amicus Therapeutics, Inc., priority 2020, published 2023).
Substitutions are numbered along the chain they refer to.

Columns and labels:
Assay in all cases: α-Gal A activity in lysates of transfected HEK-293 cells ± migalastat (HEK assay)
Assay type in all cases: cell-based
[1] = target: T1, α-Gal A mutant form M290V (Homo sapiens, UniProt P06280, M290V)
T1 construct: expressed in transfected cells; host or cells: HEK-293
T1 sequence (P06280 32-429 M290V): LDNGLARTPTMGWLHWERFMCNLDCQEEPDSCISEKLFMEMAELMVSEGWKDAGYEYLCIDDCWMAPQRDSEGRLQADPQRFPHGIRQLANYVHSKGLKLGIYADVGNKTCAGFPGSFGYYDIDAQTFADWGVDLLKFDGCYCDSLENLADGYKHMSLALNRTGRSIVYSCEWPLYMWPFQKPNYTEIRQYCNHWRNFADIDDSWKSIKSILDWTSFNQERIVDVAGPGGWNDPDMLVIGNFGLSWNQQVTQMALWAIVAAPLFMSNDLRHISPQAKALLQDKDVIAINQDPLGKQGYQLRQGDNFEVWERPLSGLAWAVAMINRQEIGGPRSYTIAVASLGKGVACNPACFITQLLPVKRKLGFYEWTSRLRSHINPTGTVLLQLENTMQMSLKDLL
From the text: (§1) Such mutations or variants are also referred to herein as “HEK assay amenable” mutations or variants.
(§2) The α-Gal A activity is expressed as the nmoles of free 4-MU released per milligram of protein per hour (nmol/mg/hr).

[2] = target: T2, α-Gal A mutant form I303T (Homo sapiens, UniProt P06280, I303T)
T2 construct: expressed in transfected cells; host or cells: HEK-293
T2 sequence (P06280 32-429 I303T): T1 sequence (P06280 32-429 M290V) with V259M, I272T
From the text: as §1, §2

[3] = target: T3, α-Gal A mutant form I133F (Homo sapiens, UniProt P06280, I133F)
T3 construct: expressed in transfected cells; host or cells: HEK-293
T3 sequence (P06280 32-429 I133F): T1 sequence (P06280 32-429 M290V) with I102F, V259M
From the text: as §1, §2

[4] = target: T4, α-Gal A mutant form F159C (Homo sapiens, UniProt P06280, F159C)
T4 construct: expressed in transfected cells; host or cells: HEK-293
T4 sequence (P06280 32-429 F159C): T1 sequence (P06280 32-429 M290V) with F128C, V259M
From the text: as §1, §2

[5] = target: T5, α-Gal A mutant form F169I (Homo sapiens, UniProt P06280, F169I)
T5 construct: expressed in transfected cells; host or cells: HEK-293
T5 sequence (P06280 32-429 F169I): T1 sequence (P06280 32-429 M290V) with F138I, V259M
From the text: as §1, §2

[6] = 10 μM migalastat minus baseline
[7] = HEK-293 lysates, 10 μM migalastat 5 days, mean ± SEM

Absolute increase (% WT) [1, 6]: 61.5 % WT
Relative increase ([1]; 10 μM migalastat ÷ baseline): 1.94
10 μM migalastat α-Gal A activity [1, 7]: 45804 ± 2927 nmol/mg/h
10 μM migalastat α-Gal A activity (% WT) [1, 7]: 128.1 ± 8.2 % WT
Absolute increase (% WT) ([2]; 10 μM migalastat minus baseline, baseline BLD): 7.3 % WT
10 μM migalastat α-Gal A activity (% WT) ([2]; HEK-293 lysates, 10 μM migalastat 5 days, mean ± SEM, baseline BLD): 7.3 ± 1.4 % WT
10 μM migalastat α-Gal A activity ([2]; HEK-293 lysates, 10 μM migalastat 5 days, mean ± SEM, baseline BLD (<142 nmol/mg/hr)): 2809 ± 520 nmol/mg/h
Absolute increase (% WT) [3, 6]: 3.1 % WT
Relative increase ([3]; 10 μM migalastat ÷ baseline): 5.27
10 μM migalastat α-Gal A activity [3, 7]: 1542 ± 154 nmol/mg/h
10 μM migalastat α-Gal A activity (% WT) [3, 7]: 3.8 ± 0.3 % WT
Absolute increase (% WT) [4, 6]: 15.8 % WT
Relative increase ([4]; 10 μM migalastat ÷ baseline): 2.07
10 μM migalastat α-Gal A activity [4, 7]: 9238 ± 513 nmol/mg/h
10 μM migalastat α-Gal A activity (% WT) [4, 7]: 29.6 ± 2.3 % WT
Absolute increase (% WT) [5, 6]: 35.9 % WT
Relative increase ([5]; 10 μM migalastat ÷ baseline): 3.44
10 μM migalastat α-Gal A activity [5, 7]: 15903 ± 567 nmol/mg/h
10 μM migalastat α-Gal A activity (% WT) [5, 7]: 51.7 ± 2.2 % WT
Structure (SMILES): OC[C@H]1NC[C@H](O)[C@@H](O)[C@H]1O [migalastat, (2R,3S,4R,5S)-2-(hydroxymethyl) piperdine-3,4,5-triol]
